This is an account of results in PMC5761851, “Application of a phenotypic drug discovery strategy to identify biological and chemical starting points for inhibition of TSLP production in lung epithelial cells” (PLoS ONE, 2018).

Where “and” joins values, the source holds several entries; their conditions need not be identical. Equal values may be shown once. Read-outs that look alike come from different tables or passages of the source.

What is called inhibition is the drop in the measured response relative to a control, in per cent. Broadly, the IC50 is the concentration at which inhibition is half-maximal.

Assay [1] concerns TSLP production in NHBE cells. Nature of the assay: TSLP HTRF assay (TSLP production in poly I:C / IL-4 stimulated NHBE cells). Type of assay: cell-based, human. Set-up: Inhibition of TSLP production in NHBE (% as indicated): concentration or dose not given beside the values. The method, then:
For dose response curves determinations, stocks of test compounds at a concentration of 1.33x10^-3 M in DMSO were sequentially diluted at 1:4 dilution steps before further 1/50 dilution in BEBM medium containing 1x ITS and 0.1% BSA. For the highest 4 μM concentration test compounds were resuspended in DMSO at a concentration of 2.5x10^-3 M and diluted 1/25 in BEBM medium containing 1x ITS and 0.1% BSA before adding 1 μl to the wells containing the cells.
All subsequent steps were automated using a Sciclone® G3 workstation (Perkin Elmer) with a Twister™ II robot (Perkin Elmer). […] 1 μl of test compound solution prepared at 25x concentration was added to the wells containing NHBE cells. The plates were then incubated during 90 minutes at 37°C, 5% CO2, 90% humidity before adding poly I:C (Invivogen HMW Tirl-pic-5) and human IL-4 (Peprotech 200–04) stimulus in 4 μl of BEBM medium containing 1x ITS, 0.1% BSA and 0.1% DMSO using a Multidrop™. […] Cells were then incubated for 24h in the presence of test compounds and stimulus at 37°C, 5% CO2 and 90% humidity conditions. After the 24h incubation period the plates were transferred to a CyBi®-Well platform (CyBio AG) to collect 10 μl of the supernatants which were transferred to a new plate. TSLP levels in the supernatant were determined using a homogeneous Time-Resolved Fluorescence (HTRF) assay custom developed by Cisbio. The assay was based in the use of a donor dye (europium cryptate) coupled to a monoclonal anti-TSLP antibody and an acceptor dye (d2) coupled to a second polyclonal anti-TSLP antibody. […] 10 μl of the resulting solution was then used to determine TSLP levels as described above.
The standard curve was built with eight points prepared in ITS/BSA in BEBM medium without supplements, starting at 700 pg/ml and diluted 1:2, with medium alone being zero TSLP. Fitting model corresponded to equation 100 of Excel fit software. Data from the primary phenotypic screen was visualized using Vortex (Dotmatics). […] For compound selection the maximum inhibition of the two individual duplicate values was taken into account. Dose response confirmation was performed at single point in the 2 donors tested. 9 point curves were run starting at 4 μM concentration by doing serial 1:4 dilutions in cells derived from both donors.
A general note: In TR-FRET formats the signal depends on donor and acceptor labels being close together.

Assay [2] relates to TSLP production in NHBE cells. Described as above. Type of assay: cell-based, human. Particulars: individual values.
The subject of assay [3] is TSLP mRNA levels in NHBE cells. The assay can be described thus: TSLP mRNA real-time PCR (qPCR) in NHBE cells. The format is cell-based, human. Set-up: TSLP mRNA upregulation (% versus control) / % Inhibition of mRNA: dose or concentration left out as unconfirmed. In general terms: Real-time PCR tracks product formation cycle by cycle.
The next assay has as its target T1, mTOR (Homo sapiens, UniProt P42345).
T1 construct: Eurofins Pharma Discovery Services (contract assay service)
The conditions noted are these: read-out: reported kinase inhibitory activity (IC50); cited from earlier work.

A further assay relates to CHO-K1 cells. The assay can be described thus: CHO-K1 viability (ATPlite). The format is cell-based. The conditions noted are these: 3.12 μM. The method, then: The viability of NHBE and CHO-K1 cells was quantified using ATP as an indirect read out of the potential cytotoxicity of the compounds. […] Plates were shaken and covered with aluminium foil for 25 min. Luminescence was measured in an Envision reader (Perkin Elmer). Evaluation of viability in CHO-K1 cells was used as an internal compound cytotoxicity standard across cellular assays. […] The plates were incubated for 24 h at 37°C in 5% CO2. After the incubation period, the culture medium was removed and washed with 100 μl of DPBS. Test compounds were dissolved and serially diluted in 100% DMSO. A final 1/100 dilution of each concentration was performed using F12 culture medium with 0.5% FBS. A volume of 100 μl culture medium containing the compounds or 1% DMSO (for control wells) was added to the wells containing the cells and the plate was incubated again 24h. After 24h of compound exposure, cells were washed with DPBS. Then, 100 μl of PBS were added, followed by the addition of 100 μl of ATPlite™ reagent. The plate was shaken for 25 minutes using a microtiter plate shaker. Luminescence was measured using a Luminoskan Ascent luminometer (Thermo Fisher Scientific).
For CHO-K1 viability assays, a standard curve of cells was included in the plate. Luminescence values versus cell number were plotted and the data adjusted to a linear equation. Luminescence values of the samples were interpolated to obtain number of cells. IC50 values were obtained by non-linear regression using Activity Base software (IDBS) and a four-parameter log equation.
On the technique in general: In ATP-based viability assays light output follows the ATP content of the culture.

In assay [4] the test system is TBK1/IKKɛ, PDK-1, Aurora B, ERK8, MARK, NUAK1, MLK, c-Kit, CDK2/CyclinE, Chk1, GSK-3β, PKA, KDR, T-Fyn and PCK. Set-up: method as in PMID 19307177. The conditions noted are these: read-out: IC50 on BX795 targets within the pharmacological range; cited from earlier work.
[5] abbreviates: 4 μM, NHBE donor #1, average ± SD.

As to `CC(C)N(C(=O)CN1N=C(c2ccccc2)Cn2c(cc3ccccc32)C1=O)C(C)C` [compound 1], the “TSLP protein upregulation (% versus control at 4 µM)” value is 170 ± 62% in assay [1] (setting [5]); 138.531% and 75.145% and 206.844% and 140.02% and 231.867% and 228.515% in assay [2]. For the same compound, the “TSLP mRNA upregulation (% versus control at 4 μM)” value in assay [3] (setting [5]) came out at 452 ± 103%. Moreover, the “TSLP mRNA upregulation (% versus control)” value in assay [3] (individual values) is 525.82% and 378.87%.

As for `CO[C@H]1C[C@@H]2CC[C@@H](C)[C@@](O)(O2)C(=O)C(=O)N2CCCC[C@H]2C(=O)O[C@H]([C@H](C)C[C@@H]2CC[C@@H](OCCO)[C@H](OC)C2)CC(=O)[C@H](C)/C=C(\C)[C@@H](O)[C@@H](OC)C(=O)[C@H](C)C[C@H](C)/C=C/C=C/C=C/1C` [Everolimus, reference compound], the inhibition at 0.031 µM in assay [1] (Homo sapiens, 0.031 μM, NHBE donor #1, read-out: Inhibition of TSLP protein production % Inhibition ± SD at) is 79.4%. Further, in assay [1] (individual values, donor #1), the “Inhibition of TSLP production in NHBE (% as indicated)” value is 62.23% and 73.18% and 78.84% and 103.38%. In addition, the IC50 at mTOR was 1 to 2 nM. The “Inhibition of CHO viability % Inhibition ± SD at 3.12 μM” value with CHO-K1 cells is given as -0.16% ± 2.3 (n = 4).

As to `O=C(NCCCNc1nc(Nc2cccc(NC(=O)N3CCCC3)c2)ncc1I)c1cccs1` [BX795, reference compound], the IC50 is below 1000 nM in assay [4]; 59.1 nM in assay [1] (Homo sapiens, NHBE, donor #1, representative curve, read-out: IC50); 79 nM in assay [1] (Homo sapiens, NHBE, donor #2, representative curve, read-out: IC50); 48 nM and 59 nM and 168 nM and 177 nM in assay [1] (individual values, donor #1, read-out: Inhibition of TSLP production in NHBE (IC50, mM) by BX795, Donor #1); 198 nM and 78 nM and 183 nM and 143 nM in assay [1] (individual values, donor #2, read-out: Inhibition of TSLP production in NHBE (IC50, mM) by BX795, Donor #2).
